A word on the IC50: it is the concentration needed to halve the response being measured.

For one test, the system named is Hedgehog pathway activation (GLi-luciferase reporter) in Shh Light II reporter cells. Description: Hedgehog pathway activation on Shh Light II reporter cells measured by luciferase activity. It is filed as cell-based. The settings on record: Mus musculus, Shh Light II, hShh activation, read-out: Shh (IC50, inhibition of Hedgehog pathway activation). As for the experimental part:
Hedgehog conditioned media was obtained by transfecting 293H cells with the full length gene encoding human Sonic Hedgehog (hShh) inserted into the pCMV6 expression vector, which contains a neomycin selectable marker and expresses the protein of interest with a C-terminal FLAG affinity tag. After selection in G418 containing media, conditioned media from Hedgehog expressing clones were tested for the ability to activate the hedgehog-responsive GLi-luciferase reporter in the Shh Light II cell line obtained by license from John Hopkins University (Taipale J, et al. Effects of oncogenic mutations in Smoothened and Patched can be reversed by cyclopamine. Nature 406: 1005-1009, 2000).
A test compound library was screened against hShh and 500 nM SAG (a direct agonist of the Smoothened receptor) activated 10T1/2/Smo#3 cells and Shh Light II reporter cells for the ability to block Hedgehog pathway activation. Concurrently, cell viability was measured by utilizing Celltiter-Blue® (Promega, Madison Wis.) viability assay. Active compounds were defined as those that inhibited Hedgehog signaling by greater than 50% with no concurrent loss in cell viability.
Their inhibitory activity against Hedgehog pathway activation on 10T1/2/Smo#3 cells as measured by ALP activity and Shh Light II reporter cells as measured by luciferase activity is shown in Table 1 below. In Table 1, +++ stands for an IC50 value that is less than 0.3 μM, ++ between 0.3 and 3 μM, + between 3 and 30 μM.
Additional data for compounds of the invention is shown below in Table 2. Their inhibitory activities against Hedgehog pathway activation are shown as IC50 values in μM on 10T1/2/Smo#3 cells as measured by ALP activity, or on Shh Light II reporter cells as measured by luciferase activity (hShh activation).
Regarding `CNC(=O)c1ccccc1-c1ccc2nc(-c3ccc(C)c(NC(=O)C(C)(C)C)c3)cn2n1` [Example 452, N-methyl-2-(2-(4-methyl-3-pivalamidophenyl)imidazo[1,2-b]pyridazin-6-yl)benzamide], the IC50 was 385 nM.
The same measure, in the same setting: the same measure for `Cc1ccc(-c2cn3nc(NC(=O)c4cc(Cl)ccn4)ccc3n2)cc1NC(=O)C(C)(C)C` [compound 613]: 283 nM.
Still for that read-out and setting: the same measure for `Cc1ccc(-c2cn3nc(-c4ccc(C=CC(=O)O)cc4)ccc3n2)cc1NC(=O)C(C)(C)C` [compound 555]: 346 nM; for `Cc1ccc(-c2cn3nc(Cl)ccc3n2)cc1NC(=O)C(C)(C)C#N` [compound 620]: 3200 nM.
With `COc1cccc(-c2ccc3nc(-c4ccc(C(F)(F)F)c(NC(=O)C(C)(C)C)c4)cn3n2)c1` [Example 229, N-(5-(6-(3-methoxyphenyl)imidazo[1,2-b]pyridazin-2-yl)-2-(trifluoromethyl)phenyl)pivalamide], the IC50 was determined as 313 nM.
Still for that read-out and setting: then `C#Cc1ccc(-c2cn3nc(-c4ccccc4F)ccc3n2)cc1N` [Example 320, 2-ethynyl-5-(6-(2-fluorophenyl)imidazo[1,2-b]pyridazin-2-yl)aniline], with 9260 nM; and `CCOC(=O)C=Cc1ccc(-c2ccc3nc(-c4ccc(C)c(NC(=O)C(C)(C)C)c4)cn3n2)cc1` [compound 552], with 356 nM.
On to `Cc1ccc(-c2cn3nc(-c4c(C)n[nH]c4C)ccc3n2)cc1NC(=O)C(C)(C)C` [compound 501], for which the IC50 was found to be 1000 nM.
On to `Cc1ccc(-c2cn3nc(-c4cccc(C(=O)NOC5CCCCO5)c4)ccc3n2)cc1NC(=O)C(C)(C)C` (centres unmarked) [compound 585], for which the IC50 stood at 925 nM.
In the case of `Cc1ccc(-c2cn3nc(-c4ccc(C(=O)O)cc4)ccc3n2)cc1NC(=O)C(C)(C)C` [compound 521], the IC50 is above 10000 nM.
With `Cc1ccc(-c2cn3nc(-c4cccc(C(=O)O)c4)ccc3n2)cc1NC(=O)C(C)(C)C` [compound 528], the half-inhibitory concentration (IC50) was found to be 5850 nM.
For the compound `COC(=O)CCCCC(=O)Nc1cc(-c2cn3nc(-c4cccnc4C(F)(F)F)ccc3n2)ccc1C` [Example 421, methyl 6-(2-methyl-5-(6-(2-(trifluoromethyl)pyridin-3-yl)imidazo[1,2-b]pyridazin-2-yl)phenylamino)-6-oxohexanoate], the IC50 is 3310 nM.
As for `Cc1ccc(-c2cn3nc(-c4c(C)noc4C)ccc3n2)cc1NC(=O)C(C)(C)C` [compound 502], the half-maximal inhibitory concentration (IC50) was determined as 580 nM.
Still for that read-out and setting: then `Cc1ccc(-c2cn3nc(-c4ccc(O)cc4F)ccc3n2)cc1NC(=O)C(C)(C)C` [compound 547], with 793 nM; and `Cc1ccc(F)c(-c2ccc3nc(-c4ccc(C(F)(F)F)c(NC(=O)C(C)(C)C)c4)cn3n2)c1` [Example 226, N-(5-(6-(2-fluoro-5-methylphenyl)imidazo[1,2-b]pyridazin-2-yl)-2-(trifluoromethyl)phenyl)pivalamide], with 1480 nM; and `Cc1ccc(-c2cn3nc(-c4cccc(F)c4Cl)ccc3n2)cc1NC(=O)C(C)(C)C` [compound 619], with 35 nM.
The same measure, in the same setting: then `CC(C)(C)C(=O)Nc1cc(-c2cn3nc(NC4CCNCC4)ccc3n2)ccc1C(F)(F)F` [Example 330, N-(5-(6-(piperidin-4-ylamino)imidazo[1,2-b]pyridazin-2-yl)-2-(trifluoromethyl)phenyl)pivalamide], with 676 nM; and `CCOC(=O)COc1ccc(-c2ccc3nc(-c4ccc(C)c(NC(=O)C(C)(C)C)c4)cn3n2)c(C(F)(F)F)n1` [Example 476, ethyl 2-(5-(2-(4-methyl-3-pivalamidophenyl)imidazo[1,2-b]pyridazin-6-yl)-6-(trifluoromethyl)pyridin-2-yloxy)acetate], with 427 nM; and `COc1ccc2nc(-c3ccc(C)c(NS(=O)(=O)c4cccc(C=CC(=O)NO)c4)c3)cn2n1` [compound 618], with 9080 nM.
Turning to `CC(C)(C)C(=O)Nc1cc(-c2cn3nc(N4CCCC4CO)ccc3n2)ccc1C(F)(F)F` (centres unmarked) [Example 348, N-(5-(6-(2-(hydroxymethyl)pyrrolidin-1-yl)imidazo[1,2-b]pyridazin-2-yl)-2-(trifluoromethyl)phenyl)pivalamide], the IC50 stood at 339 nM.
Same read-out and setting: then `Cc1ccnc(F)c1-c1ccc2nc(-c3ccc(C(F)(F)F)c(NC(=O)C(C)(C)C)c3)cn2n1` [Example 342, N-(5-(6-(2-fluoro-4-methylpyridin-3-yl)imidazo[1,2-b]pyridazin-2-yl)-2-(trifluoromethyl)phenyl)pivalamide], with 409 nM; and `Cc1ccc(-c2cn3nc(-c4ccc(C(=O)O)cn4)ccc3n2)cc1NC(=O)C(C)(C)C` [Example 459, 6-(2-(4-methyl-3-pivalamidophenyl)imidazo[1,2-b]pyridazin-6-yl)nicotinic acid], with 9290 nM; and `Cc1ccc(-c2cn3nc(-c4cncc(F)c4)ccc3n2)cc1NC(=O)C(C)(C)C` [Example 407, N-(5-(6-(5-fluoropyridin-3-yl)imidazo[1,2-b]pyridazin-2-yl)-2-methylphenyl)pivalamide], with 353 nM.
`Cc1ccc(-c2cn3nc(N4CCC(F)(F)CC4)ccc3n2)cc1NC(=O)C(C)(C)C` [Example 282, N-(5-(6-(4,4-difluoropiperidin-1-yl)imidazo[1,2-b]pyridazin-2-yl)-2-methylphenyl)pivalamide]: the IC50 turned out to be 1450 nM.
Same read-out and setting: then `CCN1CCN(c2ccc3nc(-c4ccc(C(F)(F)F)c(NC(=O)C(C)(C)C)c4)cn3n2)CC1` [Example 317, N-(5-(6-(4-ethylpiperazin-1-yl)imidazo[1,2-b]pyridazin-2-yl)-2-(trifluoromethyl)phenyl)pivalamide], with 1250 nM; and `Cc1ccc(-c2cn3nc(-c4cccnc4C(F)(F)F)ccc3n2)cc1N(C)C(=O)C(C)(C)C` [compound 514, N-methyl-N-(2-methyl-5-(6-(2-(trifluoromethyl)pyridin-3-yl)imidazo[1,2-b]pyridazin-2-yl)phenyl)pivalamide], with 392 nM.
Same read-out and setting: the same measure for `Cc1ccc(-c2cn3nc(-c4ccc(S(N)(=O)=O)cc4)ccc3n2)cc1NC(=O)C(C)(C)C` [compound 534]: 1450 nM; for `Cc1ccc(-c2cn3nc(-c4ccc(C(=O)NOC5CCCCO5)cc4)ccc3n2)cc1NC(=O)C(C)(C)C` (centres unmarked) [compound 584]: 1900 nM; for `CCOC(=O)C=Cc1cccc(C(=O)Nc2cc(-c3cn4nc(Cl)ccc4n3)ccc2C)c1` [compound 609]: above 10000 nM.
The same measure, in the same setting: then `Cc1ccc(-c2cn3nc(-c4cncc(O)c4)ccc3n2)cc1NC(=O)C(C)(C)C` [Example 405, N-(5-(6-(5-hydroxypyridin-3-yl)imidazo[1,2-b]pyridazin-2-yl)-2-methylphenyl)pivalamide], with 1980 nM.
For `Cc1ccc(-c2cn3nc(-c4cccnc4C(F)(F)F)ccc3n2)cc1NC(=O)c1cccc(C=CC(=O)NO)c1` [compound 625, 3-(3-(hydroxyamino)-3-oxoprop-1-en-1-yl)-N-(2-methyl-5-(6-(2-(trifluoromethyl)pyridin-3-yl)imidazo[1,2-b]pyridazin-2-yl)phenyl)benzamide], the IC50 was 813 nM.
For the compound `Cc1ccc(-c2cn3nc(-c4ccc(OCCCCC(=O)NO)cc4C(F)(F)F)ccc3n2)cc1NC(=O)C(C)(C)C` [Example 454, N-hydroxy-5-(4-(2-(4-methyl-3-pivalamidophenyl)imidazo[1,2-b]pyridazin-6-yl)-3-(trifluoromethyl)phenoxy)pentanamide], the IC50 was 2050 nM.
The same measure, in the same setting: the same measure for `Cc1ccc(-c2cn3nc(-c4ccc(NC(=O)CCCCCCC(=O)NO)cc4)ccc3n2)cc1NC(=O)C(C)(C)C` [compound 563]: 622 nM; for `Cc1noc(C)c1-c1ccc2nc(-c3ccc(C(F)(F)F)c(NC(=O)C(C)(C)C)c3)cn2n1` [Example 326, N-(5-(6-(3,5-dimethylisoxazol-4-yl)imidazo[1,2-b]pyridazin-2-yl)-2-(trifluoromethyl)phenyl)pivalamide]: 217 nM; for `COC(=O)c1ccc(CNc2ccc3nc(-c4ccc(C)c(NC(=O)C(C)(C)C)c4)cn3n2)cc1` [compound 592]: 443 nM.
On the same count and under the same terms, then `Cc1ccc(-c2cn3nc(-c4ccc(-c5nc(=O)[nH][nH]5)cc4C(F)(F)F)ccc3n2)cc1NC(=O)C(C)(C)C` [compound 590], with 456 nM; and `C[C@@H]1CNCCN1c1ccc2nc(-c3ccc(C(F)(F)F)c(NC(=O)C(C)(C)C)c3)cn2n1` [Example 466, (R)-N-(5-(6-(2-methylpiperazin-1-yl)imidazo[1,2-b]pyridazin-2-yl)-2-(trifluoromethyl)phenyl)pivalamide], with 2020 nM.

Staying with this test, now noted: hShh activation, read-out: Shh (IC50, inhibition of Hedgehog pathway activation).
On to `CC(C)(C)C(=O)Nc1cc(-c2cn3nc(N4CCC(N)C4)ccc3n2)ccc1C(F)(F)F` (centres unmarked) [Example 319, N-(5-(6-(3-aminopyrrolidin-1-yl)imidazo[1,2-b]pyridazin-2-yl)-2-(trifluoromethyl)phenyl)pivalamide], for which the IC50 came to 347 nM.

Source of the values: US8871767B2, “2-arylimidazo[1,2-B]pyridazine, 2-phenylimidazo[1,2-A]pyridine, and 2-phenylimidazo[1,2-A]pyrazine derivatives” (Hengrui (USA) Ltd., priority 2010, dated 2014).
